# Measured values: ChEMBL document CHEMBL3588828, “A Selective, Cell-Permeable Nonphosphorylated Bicyclic Peptidyl Inhibitor against Peptidyl-Prolyl Isomerase Pin1” (J Med Chem, 2015)
# Biological target: Peptidyl-prolyl cis-trans isomerase NIMA-interacting 1 (Homo sapiens, UniProt Q13526, S16A/Y23A)
# Assay: Binding affinity to N-terminal MBP fused and Texas-red-labeled full-length human Pin1 S16A/Y23A mutant expressed in Escherichia coli assessed as increase in fluorescence anisotropy by spectrofluorimetry
# Conditions: read-out: Kd
# Peptidyl-prolyl cis-trans isomerase NIMA-interacting 1, sequence (Q13526 whole entry S16A/Y23A, the tested form may be a part): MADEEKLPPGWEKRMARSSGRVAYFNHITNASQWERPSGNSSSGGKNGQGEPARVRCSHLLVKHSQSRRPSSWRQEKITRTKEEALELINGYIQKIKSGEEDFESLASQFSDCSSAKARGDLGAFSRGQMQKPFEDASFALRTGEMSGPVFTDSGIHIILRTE
row,Structure (SMILES),Kd [µM]
1,C[C@@H]1NC(=O)[C@H](CCCNC(=N)N)NC(=O)[C@H](Cc2ccc3ccccc3c2)NC(=O)[C@H]2CCCCN2C(=O)[C@@H](CC(=O)O)NC(=O)CN(C)C(=O)[C@@H]2CCCN2C(=O)c2cc3cc(c2)C(=O)NC[C@H](NC(=O)[C@@H](C)NC1=O)C(=O)N[C@@H](Cc1ccccc1)C(=O)N[C@@H](Cc1ccc2ccccc2c1)C(=O)N[C@@H](CCCNC(=N)N)C(=O)N[C@@H](CCCNC(=N)N)C(=O)N[C@@H](CCCNC(=N)N)C(=O)N[C@@H](CCCNC(=N)N)C(=O)N[C@H](C(=O)N[C@@H](CCCCN)C(=O)O)CNC3=O (stereo in doubt; 3),0.87
2,C[C@@H]1NC(=O)[C@H](CCCNC(=N)N)NC(=O)[C@H](Cc2ccc3ccccc3c2)NC(=O)[C@H]2CCCCN2C(=O)[C@@H]([C@H](C)O)NC(=O)[C@H](Cc2ccc(F)cc2)NC(=O)[C@@H](Cc2ccccc2)NC(=O)c2cc3cc(c2)C(=O)NC[C@@H](C(=O)N[C@@H](CCCCN)C(=O)O)NC(=O)[C@H](CCCNC(=N)N)NC(=O)[C@H](CCCNC(=N)N)NC(=O)[C@H](CCCNC(=N)N)NC(=O)[C@H](CCCNC(=N)N)NC(=O)[C@H](Cc2ccc4ccccc4c2)NC(=O)[C@H](Cc2ccccc2)NC(=O)[C@H](CNC3=O)NC1=O,0.9
3,C[C@H]1NC(=O)[C@H](CC(=O)O)NC(=O)[C@H](CCCNC(=N)N)NC(=O)[C@H](Cc2ccc3ccccc3c2)NC(=O)[C@H]2CCCCN2C(=O)[C@@H](CC(=O)O)NC(=O)CN(C)C(=O)[C@@H]2CCCN2C(=O)c2cc3cc(c2)C(=O)NC[C@H](NC1=O)C(=O)N[C@@H](Cc1ccccc1)C(=O)N[C@@H](Cc1ccc2ccccc2c1)C(=O)N[C@@H](CCCNC(=N)N)C(=O)N[C@@H](CCCNC(=N)N)C(=O)N[C@@H](CCCNC(=N)N)C(=O)N[C@@H](CCCNC(=N)N)C(=O)N[C@H](C(=O)N[C@@H](CCCCN)C(=O)O)CNC3=O,3.19
4,C[C@@H]1NC(=O)[C@H](CCCNC(=N)N)NC(=O)[C@H](Cc2ccc3ccccc3c2)NC(=O)[C@H]2CCCCN2C(=O)[C@@H]([C@H](C)O)NC(=O)[C@H](Cc2ccc(F)cc2)NC(=O)[C@@H](Cc2ccccc2)NC(=O)c2cc3cc(c2)C(=O)NC[C@H](NC(=O)[C@@H](Cc2ccccc2)NC1=O)C(=O)N[C@H](CCCNC(=N)N)C(=O)N[C@@H](CCCNC(=N)N)C(=O)N[C@H](CCCNC(=N)N)C(=O)N[C@@H](CCCNC(=N)N)C(=O)N[C@@H](Cc1ccc2ccccc2c1)C(=O)N[C@@H](Cc1ccccc1)C(=O)N[C@H](C(=O)N[C@@H](CCCCN)C(=O)O)CNC3=O,3.1
5,CN1CC(=O)N[C@H](CC(=O)O)C(=O)N2CCCC[C@@H]2C(=O)N[C@@H](Cc2ccc3ccccc3c2)C(=O)N[C@@H](CCCNC(=N)N)C(=O)NCCC(=O)NCCC(=O)N[C@H]2CNC(=O)c3cc(cc(c3)C(=O)N3CCC[C@H]3C1=O)C(=O)NC[C@@H](C(=O)N[C@@H](CCCCN)C(=O)O)NC(=O)[C@H](CCCNC(=N)N)NC(=O)[C@H](CCCNC(=N)N)NC(=O)[C@H](CCCNC(=N)N)NC(=O)[C@H](CCCNC(=N)N)NC(=O)[C@H](Cc1ccc3ccccc3c1)NC(=O)[C@H](Cc1ccccc1)NC2=O,4.83
6,C[C@@H]1NC(=O)[C@H](CCCNC(=N)N)NC(=O)[C@H](Cc2ccc3ccccc3c2)NC(=O)[C@H]2CCCCN2C(=O)[C@@H](CC(=O)O)NC(=O)CN(C)C(=O)[C@@H]2CCCN2C(=O)c2cc3cc(c2)C(=O)NC[C@H](NC(=O)[C@@H](C)NC1=O)C(=O)N[C@@H](Cc1ccccc1)C(=O)N[C@@H](Cc1ccc2ccccc2c1)C(=O)N[C@@H](CCCNC(=N)N)C(=O)N[C@@H](CCCNC(=N)N)C(=O)N[C@@H](CCCNC(=N)N)C(=O)N[C@@H](CCCNC(=N)N)C(=O)N[C@H](C(=O)N[C@@H](CCCCN)C(=O)O)CNC3=O (stereo in doubt; 10),3.42
7,C[C@@H]1NC(=O)[C@H](CCCNC(=N)N)NC(=O)[C@H](Cc2ccc3ccccc3c2)NC(=O)[C@H]2CCCCN2C(=O)[C@@H](CC(=O)O)NC(=O)CN(C)C(=O)[C@@H]2CCCN2C(=O)c2cc3cc(c2)C(=O)NC[C@@H](C(=O)N[C@@H](CCCCN)C(=O)O)NC(=O)[C@H](CCCNC(=N)N)NC(=O)[C@H](CCCNC(=N)N)NC(=O)[C@H](CCCNC(=N)N)NC(=O)[C@H](CCCNC(=N)N)NC(=O)[C@H](Cc2ccc4ccccc4c2)NC(=O)[C@H](Cc2ccccc2)NC(=O)[C@H](CNC3=O)NC1=O,2.59

# Next, values leading:
row,Kd [µM],Structure (SMILES)
1,1.68,C[C@@H]1NC(=O)[C@H](CCCNC(=N)N)NC(=O)[C@H](Cc2ccc3ccccc3c2)NC(=O)[C@H]2CCCCN2C(=O)[C@@H]([C@H](C)O)NC(=O)[C@H](Cc2cnc[nH]2)NC(=O)[C@@H](Cc2ccccc2)NC(=O)c2cc3cc(c2)C(=O)NC[C@H](NC(=O)[C@@H](C)NC1=O)C(=O)N[C@@H](Cc1ccccc1)C(=O)N[C@@H](Cc1ccc2ccccc2c1)C(=O)N[C@@H](CCCNC(=N)N)C(=O)N[C@@H](CCCNC(=N)N)C(=O)N[C@@H](CCCNC(=N)N)C(=O)N[C@@H](CCCNC(=N)N)C(=O)N[C@H](C(=O)N[C@@H](CCCCN)C(=O)O)CNC3=O
2,0.98,C[C@@H]1NC(=O)[C@H](CCCNC(=N)N)NC(=O)[C@H](Cc2ccc3ccccc3c2)NC(=O)[C@H]2CCCCN2C(=O)[C@@H]([C@H](C)O)NC(=O)[C@H](Cc2ccc(F)cc2)NC(=O)[C@@H](Cc2ccccc2)NC(=O)c2cc3cc(c2)C(=O)NC[C@H](NC(=O)[C@@H](Cc2ccccc2)NC1=O)C(=O)N[C@@H](CCCNC(=N)N)C(=O)N[C@@H](CCCNC(=N)N)C(=O)N[C@@H](CCCNC(=N)N)C(=O)N[C@@H](CCCNC(=N)N)C(=O)N[C@@H](Cc1ccc2ccccc2c1)C(=O)N[C@@H](Cc1ccccc1)C(=O)N[C@H](C(=O)N[C@@H](CCCCN)C(=O)O)CNC3=O
3,2.08,C[C@@H]1NC(=O)[C@H](CCCNC(=N)N)NC(=O)[C@H](Cc2ccc3ccccc3c2)NC(=O)[C@H]2CCCCN2C(=O)[C@@H](CC(=O)O)NC(=O)CN(C)C(=O)[C@@H]2CCCN2C(=O)c2cc3cc(c2)C(=O)NC[C@@H](C(=O)N[C@@H](CCCCN)C(=O)O)NC(=O)[C@H](CCCNC(=N)N)NC(=O)[C@H](CCCNC(=N)N)NC(=O)[C@H](CCCNC(=N)N)NC(=O)[C@H](CCCNC(=N)N)NC(=O)[C@H](Cc2ccc4ccccc4c2)NC(=O)[C@H](Cc2ccccc2)NC(=O)[C@H](CNC3=O)NC(=O)CCNC1=O
4,0.45,C[C@@H]1NC(=O)[C@H](CCCNC(=N)N)NC(=O)[C@H](Cc2ccc3ccccc3c2)NC(=O)[C@H]2CCCCN2C(=O)[C@@H]([C@H](C)O)NC(=O)[C@H](Cc2ccc(F)cc2)NC(=O)[C@@H](Cc2ccccc2)NC(=O)c2cc3cc(c2)C(=O)NC[C@H](NC(=O)[C@@H](Cc2ccccc2)NC1=O)C(=O)N[C@@H](CCCNC(=N)N)C(=O)N[C@@H](Cc1ccc2ccccc2c1)C(=O)N[C@@H](CCCNC(=N)N)C(=O)N[C@@H](Cc1ccccc1)C(=O)N[C@@H](CCCNC(=N)N)C(=O)N[C@@H](CCCNC(=N)N)C(=O)N[C@H](C(=O)N[C@@H](CCCCN)C(=O)O)CNC3=O
5,1.75,CC(C)[C@@H]1NC(=O)[C@H](CCCNC(=N)N)NC(=O)[C@H](Cc2ccc3ccccc3c2)NC(=O)[C@H]2CCCCN2C(=O)[C@@H](CC(=O)O)NC(=O)CN(C)C(=O)[C@@H]2CCCN2C(=O)c2cc3cc(c2)C(=O)NC[C@H](NC(=O)[C@@H](C)NC1=O)C(=O)N[C@@H](Cc1ccccc1)C(=O)N[C@@H](Cc1ccc2ccccc2c1)C(=O)N[C@@H](CCCNC(=N)N)C(=O)N[C@@H](CCCNC(=N)N)C(=O)N[C@@H](CCCNC(=N)N)C(=O)N[C@@H](CCCNC(=N)N)C(=O)N[C@H](C(=O)N[C@@H](CCCCN)C(=O)O)CNC3=O
6,2.17,C[C@H]1NC(=O)[C@H](Cc2ccc(O)cc2)NC(=O)[C@H](CCCNC(=N)N)NC(=O)[C@H](Cc2ccc3ccccc3c2)NC(=O)[C@H]2CCCCN2C(=O)[C@@H](CC(=O)O)NC(=O)CN(C)C(=O)[C@@H]2CCCN2C(=O)c2cc3cc(c2)C(=O)NC[C@H](NC1=O)C(=O)N[C@@H](Cc1ccccc1)C(=O)N[C@@H](Cc1ccc2ccccc2c1)C(=O)N[C@@H](CCCNC(=N)N)C(=O)N[C@@H](CCCNC(=N)N)C(=O)N[C@@H](CCCNC(=N)N)C(=O)N[C@@H](CCCNC(=N)N)C(=O)N[C@H](C(=O)N[C@@H](CCCCN)C(=O)O)CNC3=O
7,2.49,C[C@@H]1NC(=O)[C@H](CCCNC(=N)N)NC(=O)[C@H](Cc2ccc3ccccc3c2)NC(=O)[C@H]2CCCCN2C(=O)[C@@H](CC(=O)O)NC(=O)CN(C)C(=O)[C@@H]2CCCN2C(=O)c2cc3cc(c2)C(=O)NC[C@H](NC(=O)[C@@H](C)NC(=O)[C@@H](C)NC1=O)C(=O)N[C@@H](Cc1ccccc1)C(=O)N[C@@H](Cc1ccc2ccccc2c1)C(=O)N[C@@H](CCCNC(=N)N)C(=O)N[C@@H](CCCNC(=N)N)C(=O)N[C@@H](CCCNC(=N)N)C(=O)N[C@@H](CCCNC(=N)N)C(=O)N[C@H](C(=O)N[C@@H](CCCCN)C(=O)O)CNC3=O
8,1.38,C[C@@H]1NC(=O)[C@H](CCCNC(=N)N)NC(=O)[C@H](Cc2ccc3ccccc3c2)NC(=O)[C@H]2CCCCN2C(=O)[C@@H]([C@H](C)O)NC(=O)[C@H](Cc2ccc(F)cc2)NC(=O)[C@@H](Cc2ccccc2)NC(=O)c2cc3cc(c2)C(=O)NC[C@H](NC(=O)[C@@H](Cc2ccccc2)NC1=O)C(=O)N[C@@H](CCCNC(=N)N)C(=O)N[C@@H](CCCNC(=N)N)C(=O)N[C@@H](Cc1ccc2ccccc2c1)C(=O)N[C@@H](Cc1ccccc1)C(=O)N[C@@H](CCCNC(=N)N)C(=O)N[C@@H](CCCNC(=N)N)C(=O)N[C@H](C(=O)N[C@@H](CCCCN)C(=O)O)CNC3=O
9,1.75,C[C@@H]1NC(=O)CCNC(=O)[C@H](CCCNC(=N)N)NC(=O)[C@H](Cc2ccc3ccccc3c2)NC(=O)[C@H]2CCCCN2C(=O)[C@@H](CC(=O)O)NC(=O)CN(C)C(=O)[C@@H]2CCCN2C(=O)c2cc3cc(c2)C(=O)NC[C@@H](C(=O)N[C@@H](CCCCN)C(=O)O)NC(=O)[C@H](CCCNC(=N)N)NC(=O)[C@H](CCCNC(=N)N)NC(=O)[C@H](CCCNC(=N)N)NC(=O)[C@H](CCCNC(=N)N)NC(=O)[C@H](Cc2ccc4ccccc4c2)NC(=O)[C@H](Cc2ccccc2)NC(=O)[C@H](CNC3=O)NC1=O
